From ChEMBL document CHEMBL4622874, “Discovery of ORN0829, a potent dual orexin 1/2 receptor antagonist for the treatment of insomnia” (Bioorg Med Chem, 2020) come the findings set out here.

pIC50: −log10 of the molar value.

In data set [1] the target is T1, Orexin/Hypocretin receptor type 1 (Homo sapiens, UniProt O43613).
T1 sequence (O43613 whole entry): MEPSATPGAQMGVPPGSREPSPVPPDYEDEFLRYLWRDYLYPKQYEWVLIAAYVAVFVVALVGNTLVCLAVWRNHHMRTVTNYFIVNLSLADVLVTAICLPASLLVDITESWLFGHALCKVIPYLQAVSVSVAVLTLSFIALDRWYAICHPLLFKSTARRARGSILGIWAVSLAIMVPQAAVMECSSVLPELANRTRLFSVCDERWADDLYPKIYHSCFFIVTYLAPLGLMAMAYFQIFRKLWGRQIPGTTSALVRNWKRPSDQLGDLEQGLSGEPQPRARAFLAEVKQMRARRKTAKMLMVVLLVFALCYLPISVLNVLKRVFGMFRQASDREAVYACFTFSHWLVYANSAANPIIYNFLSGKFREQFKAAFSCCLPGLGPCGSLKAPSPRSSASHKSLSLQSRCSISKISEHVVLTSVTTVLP
Briefly: Antagonist activity at human recombinant OX1R expressed in CHOK1 cells assessed as inhibition of orexin A-induced intracellular Ca2+ release preincubated for 30 mins followed by orexin-A stimulation by Fluo4-AM dye based fluorescence analysis. The class given is functional, cell-based, CHO-K1.

Data set [2] addresses T2, Orexin receptor type 2 (Homo sapiens, UniProt O43614).
T2 sequence (O43614 whole entry): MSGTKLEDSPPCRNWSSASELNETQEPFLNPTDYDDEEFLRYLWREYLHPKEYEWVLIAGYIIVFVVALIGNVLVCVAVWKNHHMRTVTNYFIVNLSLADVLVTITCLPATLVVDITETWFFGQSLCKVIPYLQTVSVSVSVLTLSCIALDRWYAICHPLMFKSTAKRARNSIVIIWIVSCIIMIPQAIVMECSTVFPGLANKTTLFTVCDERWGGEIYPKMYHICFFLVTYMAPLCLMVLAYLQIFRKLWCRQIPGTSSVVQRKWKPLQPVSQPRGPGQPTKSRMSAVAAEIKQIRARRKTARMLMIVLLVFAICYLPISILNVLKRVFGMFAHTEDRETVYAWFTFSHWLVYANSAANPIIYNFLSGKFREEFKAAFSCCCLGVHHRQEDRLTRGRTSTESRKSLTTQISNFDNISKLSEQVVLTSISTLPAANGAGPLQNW
The data set is described as follows: Antagonist activity at human recombinant OX2R expressed in CHOK1 cells assessed as inhibition of orexin A-induced intracellular Ca2+ release preincubated for 30 mins followed by orexin-A stimulation by Fluo-4AM dye based fluorescence analysis. In kind it is functional, cell-based, CHO-K1.

Data set [3] can be described thus: Drug metabolism in human liver microsomes incubated for 15 mins. The class given is ADME, Microsome. The note with it: read-out: Drug metabolism.
Data set [4] has as its target P-gp (ABCB1) (Homo sapiens, UniProt P08183). The data set is described as follows: Substrate activity at P-gp (unknown origin) assessed as efflux ratio. In kind it is ADME. The note with it: not told.
Data set [5] can be described thus: Lipophilicity, log D of the compound at pH 7.4 by HPLC analysis. The class given is physicochemical. The note with it: buffer.
Data set [6] deals with Cytochrome P450 3A4 (Homo sapiens, UniProt P08684). Briefly: Time dependent inhibition of CYP3A4 (unknown origin). In kind it is ADME.
Cytochrome P450 3A4, sequence (P08684 whole entry): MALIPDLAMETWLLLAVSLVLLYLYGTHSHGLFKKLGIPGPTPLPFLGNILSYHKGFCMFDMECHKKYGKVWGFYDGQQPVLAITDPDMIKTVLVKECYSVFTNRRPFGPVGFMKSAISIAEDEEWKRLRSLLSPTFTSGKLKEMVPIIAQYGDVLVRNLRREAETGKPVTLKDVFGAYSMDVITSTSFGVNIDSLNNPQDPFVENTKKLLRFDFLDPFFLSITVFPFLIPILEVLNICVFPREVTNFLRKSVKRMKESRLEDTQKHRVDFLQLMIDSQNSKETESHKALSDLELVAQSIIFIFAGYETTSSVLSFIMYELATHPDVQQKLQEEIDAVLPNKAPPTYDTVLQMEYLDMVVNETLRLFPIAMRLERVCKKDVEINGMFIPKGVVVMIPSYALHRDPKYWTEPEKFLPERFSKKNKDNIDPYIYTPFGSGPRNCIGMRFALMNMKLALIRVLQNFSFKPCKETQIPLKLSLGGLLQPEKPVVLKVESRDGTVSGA
Data set [7] has as its target Voltage-gated inwardly rectifying potassium channel KCNH2 (Homo sapiens, UniProt Q12809). Briefly: Inhibition of human ERG.

P-gp (ABCB1), sequence (P08183 whole entry): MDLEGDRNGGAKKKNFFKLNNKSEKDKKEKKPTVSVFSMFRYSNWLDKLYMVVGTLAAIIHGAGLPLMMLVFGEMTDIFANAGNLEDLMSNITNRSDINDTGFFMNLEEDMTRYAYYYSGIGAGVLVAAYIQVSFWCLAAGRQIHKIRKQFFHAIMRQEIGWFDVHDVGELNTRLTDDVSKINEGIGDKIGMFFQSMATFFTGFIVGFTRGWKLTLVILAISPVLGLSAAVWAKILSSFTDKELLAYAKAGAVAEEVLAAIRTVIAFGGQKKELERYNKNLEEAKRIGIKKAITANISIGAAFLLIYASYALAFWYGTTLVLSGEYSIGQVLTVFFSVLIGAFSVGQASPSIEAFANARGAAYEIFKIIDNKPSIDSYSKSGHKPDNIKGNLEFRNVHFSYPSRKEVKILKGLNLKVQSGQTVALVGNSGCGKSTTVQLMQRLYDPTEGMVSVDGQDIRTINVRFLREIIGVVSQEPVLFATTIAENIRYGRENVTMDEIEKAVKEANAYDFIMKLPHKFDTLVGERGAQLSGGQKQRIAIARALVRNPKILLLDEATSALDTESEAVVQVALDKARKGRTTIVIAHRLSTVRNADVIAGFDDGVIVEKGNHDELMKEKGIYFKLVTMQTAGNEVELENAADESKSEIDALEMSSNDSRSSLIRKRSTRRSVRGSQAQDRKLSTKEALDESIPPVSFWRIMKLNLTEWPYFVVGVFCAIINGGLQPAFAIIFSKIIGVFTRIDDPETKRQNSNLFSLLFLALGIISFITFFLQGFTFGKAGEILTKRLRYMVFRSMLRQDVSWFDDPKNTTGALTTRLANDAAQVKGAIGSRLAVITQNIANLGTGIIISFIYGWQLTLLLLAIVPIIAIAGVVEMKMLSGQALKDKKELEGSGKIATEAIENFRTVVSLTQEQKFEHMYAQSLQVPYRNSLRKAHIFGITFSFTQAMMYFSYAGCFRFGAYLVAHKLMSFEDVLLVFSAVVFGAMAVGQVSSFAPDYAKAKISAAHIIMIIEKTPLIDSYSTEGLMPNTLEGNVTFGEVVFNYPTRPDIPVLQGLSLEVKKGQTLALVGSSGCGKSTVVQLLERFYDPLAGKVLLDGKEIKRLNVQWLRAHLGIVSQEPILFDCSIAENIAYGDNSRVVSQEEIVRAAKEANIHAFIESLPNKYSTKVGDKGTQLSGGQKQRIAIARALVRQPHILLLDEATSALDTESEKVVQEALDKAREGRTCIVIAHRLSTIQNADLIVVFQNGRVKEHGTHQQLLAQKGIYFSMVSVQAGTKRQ
Voltage-gated inwardly rectifying potassium channel KCNH2, sequence (Q12809 whole entry): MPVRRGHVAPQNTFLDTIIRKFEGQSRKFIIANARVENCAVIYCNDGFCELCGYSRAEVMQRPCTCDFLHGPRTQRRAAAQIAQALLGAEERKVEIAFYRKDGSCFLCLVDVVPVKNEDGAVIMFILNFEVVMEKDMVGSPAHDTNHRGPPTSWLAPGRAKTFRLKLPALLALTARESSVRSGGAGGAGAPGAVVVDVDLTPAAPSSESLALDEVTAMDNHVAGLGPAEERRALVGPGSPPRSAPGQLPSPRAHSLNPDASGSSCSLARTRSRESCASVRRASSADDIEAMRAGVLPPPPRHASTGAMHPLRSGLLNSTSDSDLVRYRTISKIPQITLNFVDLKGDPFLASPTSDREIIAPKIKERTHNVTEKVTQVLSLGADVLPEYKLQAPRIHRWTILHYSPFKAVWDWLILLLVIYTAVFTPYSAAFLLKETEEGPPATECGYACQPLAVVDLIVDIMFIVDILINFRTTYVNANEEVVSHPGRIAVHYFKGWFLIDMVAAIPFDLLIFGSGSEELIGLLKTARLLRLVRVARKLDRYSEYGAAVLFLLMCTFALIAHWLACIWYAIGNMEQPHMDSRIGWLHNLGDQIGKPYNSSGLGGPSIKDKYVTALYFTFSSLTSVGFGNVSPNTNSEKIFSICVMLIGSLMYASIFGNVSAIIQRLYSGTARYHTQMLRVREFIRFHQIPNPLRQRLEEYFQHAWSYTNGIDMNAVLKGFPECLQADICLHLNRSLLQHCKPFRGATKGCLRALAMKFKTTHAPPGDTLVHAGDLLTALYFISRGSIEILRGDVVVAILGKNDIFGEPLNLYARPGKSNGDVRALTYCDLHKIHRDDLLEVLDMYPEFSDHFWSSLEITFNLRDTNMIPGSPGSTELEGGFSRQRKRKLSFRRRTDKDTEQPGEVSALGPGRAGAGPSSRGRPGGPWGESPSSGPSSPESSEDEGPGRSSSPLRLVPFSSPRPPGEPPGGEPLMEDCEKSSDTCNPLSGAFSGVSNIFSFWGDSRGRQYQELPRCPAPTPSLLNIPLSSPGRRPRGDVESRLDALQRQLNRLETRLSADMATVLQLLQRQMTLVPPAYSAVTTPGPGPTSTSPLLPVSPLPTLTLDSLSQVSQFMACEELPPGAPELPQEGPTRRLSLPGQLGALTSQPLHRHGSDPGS

Broadly, the pIC50 is the negative decadic logarithm of the IC50, by convention in mol/L. For orientation: efflux ratio means the permeability from basolateral to apical divided by that in the opposite direction, in the common usage. Usually logD stands for the decadic logarithm of the distribution of all forms, ionised or not, between an organic phase and buffer at a given pH. Read a high logD as a more lipophilic compound. As for `O=C(c1cc(F)ccc1-n1nccn1)N1CCCO[C@H]1Cn1ccc(-c2ccc(F)cn2)n1`, the negative logarithm of the IC50 (pIC50) in data set [1] is 8.40; in data set [2] it was 8.71. Also, the metabolised at 0.25 h in data set [3] came to 43.2%. Besides, the efflux ratio in data set [4] was determined as 2.64. In data set [5], this compound had a logD of 2.46.

On to `Cc1ccc(-n2nccn2)c(C(=O)N2CCCC[C@@H]2Cn2ccc(-c3ccc(F)cn3)n2)c1`, for which the negative logarithm of the IC50 (pIC50) in data set [1] was 7.68; in data set [2], 7.28. For the same compound, the log distribution coefficient (logD) in data set [5] worked out at 2.95.

Take `CCN(CCn1ccc(-c2ccc(F)cn2)n1)C(=O)c1cc(C)ccc1-n1nccn1`: the metabolised at 0.25 h in data set [3] amounted to 20.2%. Further, the efflux ratio in data set [4] stood at 1.51. The logD in data set [5] was determined as 2.78.

As for `Cc1ccc(-n2nccn2)c(C(=O)N2CCCO[C@@H]2Cn2ccc(-c3ccc(F)cn3)n2)c1`, the pIC50 was 6.46 in data set [1] and 6.56 in data set [2]. Further, the logD in data set [5] is 2.56.

Regarding `O=C(c1ccccc1-n1nccn1)N1CCCO[C@H]1Cn1ccc(-c2ccc(F)cn2)n1`, the pIC50 in data set [1] was 8.42; in data set [2] it was 8.58. Also, the metabolised at 0.25 h in data set [3] came out at 14.6%. Besides, in data set [4], the efflux ratio stood at 3.25. This compound also came in with a logD in data set [5] of 2.3.

In the case of `Cc1ccc(-n2nccn2)c(C(=O)N2CSC[C@H]2Cn2ccc(-c3ccc(F)cn3)n2)c1`, the pIC50 was 8.34 in data set [1] and 7.88 in data set [2]. The metabolised at 0.25 h in data set [3] worked out at 73.7%. Besides, the efflux ratio in data set [4] stood at 1.13. This compound came in with a pH-dependent lipophilicity (logD) in data set [5] of 3.08.

`Cc1ccc(-n2nccn2)c(C(=O)N2CCO[C@@H]2Cn2ccc(-c3ccc(F)cn3)n2)c1`: in data set [1], the negative-log IC50 (pIC50) is 5.57. The compound further showed a logD in data set [5] of 2.68.

Consider `Cc1ccc(-n2nccn2)c(C(=O)N2CCCO[C@H]2Cn2cc(-c3ccc(F)cc3)cn2)c1`, for which the pIC50 in data set [1] was 8.66. Further, the metabolised at 0.25 h in data set [3] stood at 24.8%. The logD in data set [5] stood at 3.15. For the same compound, the “inhibition (INH)” value in data set [6] and in data set [7] was “Active” in each case.

As for `Cc1ccc(-n2nccn2)c(C(=O)N2CCC[C@@H]2Cn2ccc(-c3ccc(F)cn3)n2)c1`, the results for the pIC50 in data set [1] and in data set [2] were 6.44 and 6.50, respectively. For the same compound, in data set [5], the logD was 3.06.

On to `Cc1ccc(-n2nccn2)c(C(=O)N2CCCO[C@H]2Cn2cc(-c3ccc(F)cn3)nn2)c1`, for which the pIC50 in data set [1] is 7.92; in data set [2], 8.51. In data set [3], the metabolised at 0.25 h turned out to be 4.3%. Moreover, in data set [4], the efflux ratio turned out to be 4.97. Also, the logD in data set [5] stood at 2.38.

For the compound `Cc1ccc(-n2nccn2)c(C(=O)N2CCCO[C@H]2Cc2noc(-c3ccc(F)cn3)n2)c1`, the figures for the pIC50 in data set [1] and in data set [2] were 8.34 and 8.44, respectively. Also, the metabolised at 0.25 h in data set [3] is 19.5%. For the same compound, the efflux ratio in data set [4] came out at 3.06. For the same compound, the log distribution coefficient (logD) in data set [5] was 2.53.

With `Cc1ccc(-n2nccn2)c(C(=O)N2CCC[C@H]2Cn2ccc(-c3ccc(F)cn3)n2)c1`, the pIC50 is 8.48 in data set [1] and 8.50 in data set [2]. Further, the metabolised at 0.25 h in data set [3] amounted to 37.2%. Further, the efflux ratio in data set [4] is 1.96. The same compound showed a logD in data set [5] of 3.08.

For `Cc1ccc(-n2nccn2)c(C(=O)N2CCCO[C@H]2Cc2cnn(-c3ccc(F)cn3)c2)c1`, the pIC50 in data set [1] was 8.40. For the same compound, the metabolised at 0.25 h in data set [3] amounted to 29.7%. For the same compound, in data set [5], the logD was determined as 3.03.

In the case of `Cc1ccc(-c2ncccn2)c(C(=O)N2CCCO[C@H]2Cn2ccc(-c3ccc(F)cn3)n2)c1`, the values for the negative logarithm of the IC50 (pIC50) in data set [1] and in data set [2] were 8.48 and 8.50, respectively. The metabolised at 0.25 h in data set [3] turned out to be 26.3%. Also, the efflux ratio in data set [4] was determined as 6.74. Further, the logD in data set [5] was determined as 2.36.

`Cc1ccc(-n2nccn2)c(C(=O)N2CCS[C@H]2Cn2ccc(-c3ccc(F)cn3)n2)c1`: the values for the negative logarithm of the IC50 (pIC50) in data set [1] and in data set [2] were 7.21 and 5.64, respectively. For the same compound, in data set [3], the metabolised at 0.25 h was determined as 53%. The efflux ratio in data set [4] was 1.34. In data set [5], this compound had a logD of 3.51.

With `Cc1ccc(-n2nccn2)c(C(=O)N2CCCC[C@H]2Cn2ccc(-c3ccc(F)cn3)n2)c1`, the pIC50 is 8.64 in data set [1] and 8.79 in data set [2]. Moreover, in data set [3], the metabolised at 0.25 h worked out at 51.9%. Besides, the efflux ratio in data set [4] was 1.63. The compound also gave a logD in data set [5] of 2.96.

Turning to `Cc1ccc(-n2nccn2)c(C(=O)N2CCO[C@H]2Cn2ccc(-c3ccc(F)cn3)n2)c1`, the pIC50 in data set [1] is 8.09. Also, the metabolised at 0.25 h in data set [3] was 15.7%. Moreover, the logD in data set [5] was 2.67.

Regarding `Cc1ccc(-n2nccn2)c(C(=O)N2COCC[C@H]2Cn2ccc(-c3ccc(F)cn3)n2)c1`, the negative-log IC50 (pIC50) in data set [1] and in data set [2] was 8.47 in each case. In data set [3], the metabolised at 0.25 h came to 24.1%. The efflux ratio in data set [4] was found to be 3.08. The logD in data set [5] was 2.39.

Turning to `O=C(c1cc(F)ccc1-c1ncccn1)N1CCCO[C@H]1Cn1ccc(-c2ccc(F)cn2)n1`, the negative-log IC50 (pIC50) in data set [1] is 8.49; in data set [2], 8.34. Moreover, the metabolised at 0.25 h in data set [3] was determined as 28.9%. The efflux ratio in data set [4] stood at 5.36. The compound also gave a pH-dependent lipophilicity (logD) in data set [5] of 2.3.

Turning to `Cc1ccc(-n2nccn2)c(C(=O)N2CCCO[C@H]2Cn2ncn(-c3ccc(F)cn3)c2=O)c1`, the negative logarithm of the IC50 (pIC50) is 7.07 in data set [1] and 8.27 in data set [2]. In addition, the metabolised at 0.25 h in data set [3] amounted to 15.6%. The efflux ratio in data set [4] came out at 2.88. The same compound came in with a logD in data set [5] of 2.52.

Consider `Cc1ccc(-n2nccn2)c(C(=O)N2CCCO[C@H]2Cn2cc(-c3ccc(F)cn3)cn2)c1`, for which the negative logarithm of the IC50 (pIC50) in data set [1] was 8.27. Moreover, the metabolised at 0.25 h in data set [3] came out at 15.8%. The same compound displayed a logD in data set [5] of 2.38.

As for `Cc1ccc(-n2nccn2)c(C(=O)N2CCCO[C@H]2Cn2ncc(-c3ccc(F)cn3)n2)c1`, the pIC50 is 8.54 in data set [1] and 8.73 in data set [2]. In addition, the metabolised at 0.25 h in data set [3] was determined as 16.4%. The efflux ratio in data set [4] was 1.38. This compound also gave a log distribution coefficient (logD) in data set [5] of 2.8.

Turning to `Cc1ccc(-n2nccn2)c(C(=O)N2CCOC[C@H]2Cn2ccc(-c3ccc(F)cn3)n2)c1`, the values for the negative logarithm of the IC50 (pIC50) in data set [1] and in data set [2] were 8.46 and 7.82, respectively. Moreover, in data set [3], the metabolised at 0.25 h worked out at 24.5%. For the same compound, the efflux ratio in data set [4] came out at 3.56. The same compound displayed a pH-dependent lipophilicity (logD) in data set [5] of 2.33.

Turning to `Cc1ccc(-n2nccn2)c(C(=O)N2COC[C@H]2Cn2ccc(-c3ccc(F)cn3)n2)c1`, the results for the pIC50 in data set [1] and in data set [2] were 6.83 and 6.88, respectively. The metabolised at 0.25 h in data set [3] amounted to 18%. Besides, the efflux ratio in data set [4] amounted to 1.65. Moreover, in data set [5], the log distribution coefficient (logD) came to 2.52.
